# Measurements as given in ChEMBL document CHEMBL5512665, “A CARM1 Inhibitor Potently Suppresses Breast Cancer Both In Vitro and In Vivo” (J Med Chem, 2024).
# pEC50: −log10 of the molar value. Active and inactive are the calls of the source. The rule behind the calls is not given here.
# Assays:
# [1] = Toxicity in BALB/C mouse xenografted with human MCF7 cells assessed as change in lung morphology at 50 mg/kg,ip administrated every other day for 29 days; assay type: organism-based; conditions: in vivo, 696 h, time 29 day
# MCF7 [2] = experiment: Synergistic antitumor activity against human MCF7 cells xenografted in BALB/C mouse assessed as downregulation of CCND1 gene expression at 25 mg/kg,ip administrated every other day for 15 days in presence of 5 mg/kg tamoxifen oral administration by RT-qPCR analysis; assay type: functional, organism-based; conditions: time 15.0 day
# [3] = Toxicity in BALB/C mouse xenografted with human MDA-MB-231 cells assessed as change in liver morphology at 50 mg/kg,ip administrated daily for 11 days; assay type: organism-based; conditions: in vivo, 264 h, time 11 day
# 4T1 [4] = experiment: Antitumor activity against mouse 4T1 cells implanted in BALB/C mouse assessed as upregulation of IFNalpha gene expression at 50 mg/kg,ip administrated daily for 14 days by RT-qPCR analysis; assay type: functional, organism-based; conditions: time 14.0 day
# 4T1 [5] = experiment: Antitumor activity against mouse 4T1 cells implanted in BALB/C mouse assessed as upregulation of IFIT1 gene expression at 25 mg/kg,ip administrated daily for 14 days by RT-qPCR analysis; assay type: functional, organism-based; conditions: time 14.0 day
# 4T1 [6] = experiment: Antitumor activity against mouse 4T1 cells implanted in BALB/C mouse assessed as downregulation of CCND1 gene expression at 50 mg/kg,ip administrated daily for 14 days by RT-qPCR analysis; assay type: functional, organism-based; conditions: time 14.0 day
# 4T1 [7] = experiment: Antitumor activity against mouse 4T1 cells implanted in BALB/C mouse assessed as downregulation of CCND1 gene expression at 25 mg/kg,ip administrated daily for 14 days by RT-qPCR analysis; assay type: functional, organism-based; conditions: time 14.0 day
# 4T1 [8] = experiment: (§1) Potentiation of etoposide induced antitumor activity against mouse 4T1 cells implanted in BALB/C mouse assessed as upregulation of CCL5 gene expression at 25 mg/kg,ip administrated daily for 12 days in presence of 8 mg/kg etoposide administration by RT-qPCR analysis; assay type: functional, organism-based; conditions: time 12.0 day
# [9] = Toxicity in BALB/C mouse xenografted with human MCF7 cells assessed as change in body weight at 25 mg/kg,ip administrated every other day for 29 days; assay type: organism-based; conditions: in vivo, 696 h, time 29 day
# MCF7 [10] = experiment: Antitumor activity against human MCF7 cells xenografted in BALB/C mouse assessed as downregulation of NRIP1 gene expression at 25 mg/kg,ip administrated every other day for 29 days by RT-qPCR analysis; assay type: functional, organism-based; conditions: time 29.0 day
# MCF7 [11] = experiment: Antitumor activity against human MCF7 cells xenografted in BALB/C mouse assessed as downregulation of CCND1 gene expression at 25 mg/kg,ip administrated every other day for 29 days by RT-qPCR analysis; assay type: functional, organism-based; conditions: time 29.0 day
# 4T1 [12] = experiment: as §1, with “increase in infiltration” for “upregulation”, “CD8 positive T cells” for “CCL5 gene expression”, “immunohistochemical staining based” for “RT-qPCR”; assay type: functional, organism-based; conditions: time 12.0 day
# MCF7 [13] = experiment: Synergistic antitumor activity against human MCF7 cells xenografted in BALB/C mouse assessed as downregulation of FOXC1 gene expression at 25 mg/kg,ip administrated every other day for 15 days in presence of 5 mg/kg tamoxifen oral administration by RT-qPCR analysis; assay type: functional, organism-based; conditions: time 15.0 day
# 4T1 [14] = experiment: Antitumor activity against mouse 4T1 cells implanted in BALB/C mouse assessed as downregulation of GREB1 gene expression at 50 mg/kg,ip administrated daily for 14 days by RT-qPCR analysis; assay type: functional, organism-based; conditions: time 14.0 day
# T47D = experiment: Induction of cell cycle arrest in human T47D cells at 2.5 to 10 uM incubated overnight by propidium iodide staining based flow cytometry; assay type: functional; conditions: dose 2.5-10 µM
# 4T1 [15] = experiment: Antitumor activity against mouse 4T1 cells implanted in BALB/C mouse assessed as upregulation of DDX58 gene expression at 50 mg/kg,ip administrated daily for 14 days by RT-qPCR analysis; assay type: functional, organism-based; conditions: time 14.0 day
# 4T1 [16] = experiment: Antitumor activity against mouse 4T1 cells implanted in BALB/C mouse assessed as downregulation of C-Myc gene expression at 50 mg/kg,ip administrated daily for 14 days by RT-qPCR analysis; assay type: functional, organism-based; conditions: time 14.0 day
# MDA-MB-468 = experiment: Antiproliferative activity against human MDA-MB-468 cells assessed as reduction in cell growth incubated for 7 days by celltiter 96 aqueous one solution cell proliferation assay; conditions: MDA-MB-468, 168 h
# MCF7 [17] = experiment: Antitumor activity against human MCF7 cells xenografted in BALB/C mouse assessed as downregulation of PGR gene expression at 25 mg/kg,ip administrated every other day for 29 days by RT-qPCR analysis; assay type: functional, organism-based; conditions: time 29.0 day
# MCF7 [18] = experiment: Antitumor activity against human MCF7 cells xenografted in BALB/C mouse assessed as inhibition of tumor growth at 50 mg/kg,ip administrated every other day for 29 days; assay type: functional, organism-based; conditions: time 29.0 day
# MCF7 [19] = experiment: Synergistic antiproliferative activity against human MCF7 cells assessed as downregulation of N-Myc gene expression at 2.5 uM incubated for 6 hrs in presence of fulvestrant by RT-qPCR analysis; assay type: functional, cell-based
# MCF7 [20] = experiment: Antitumor activity against human MCF7 cells xenografted in BALB/C mouse assessed as reduction of tumor weight at 50 mg/kg,ip administrated every other day for 29 days; assay type: functional, organism-based; conditions: time 29.0 day
# [21] = Toxicity in BALB/C mouse xenografted with human MDA-MB-231 cells assessed as change in lung morphology at 25 mg/kg,ip administrated daily for 11 days; assay type: organism-based; conditions: in vivo, 264 h, time 11 day
# MCF7 [22] = experiment: Antitumor activity against human MCF7 cells xenografted in BALB/C mouse assessed as downregulation of GREB1 gene expression at 50 mg/kg,ip administrated every other day for 29 days by RT-qPCR analysis; assay type: functional, organism-based; conditions: time 29.0 day
# [23] = Toxicity in BALB/C mouse implanted with mouse 4T1 cells assessed as change in kidney morphology at 50 mg/kg,ip administrated daily for 14 days; assay type: organism-based; conditions: in vivo, 336 h, time 14 day
# [24] = Toxicity in BALB/C mouse implanted with mouse 4T1 cells assessed as change in spleen morphology at 50 mg/kg,ip administrated daily for 14 days; assay type: organism-based; conditions: in vivo, 336 h, time 14 day
# 4T1 [25] = experiment: Antitumor activity against mouse 4T1 cells implanted in BALB/C mouse assessed as upregulation of CD8A expression at 50 mg/kg,ip administrated daily for 14 days by immunohistochemical staining based analysis; assay type: functional, organism-based; conditions: time 14.0 day
# [26] = Toxicity in BALB/C mouse implanted with mouse 4T1 cells assessed as change in heart morphology at 25 mg/kg,ip administrated daily for 14 days; assay type: organism-based; conditions: in vivo, 336 h, time 14 day
# 4T1 [27] = experiment: Potentiation of etoposide induced antiproliferative activity against mouse 4T1 cells assessed as upregulation of DDX58 gene expression at 2.5 uM in presence of etoposide by RT-qPCR analysis; assay type: functional, cell-based
# MCF7 [28] = experiment: Antitumor activity against human MCF7 cells xenografted in BALB/C mouse assessed as upregulation of IFIT1 gene expression at 25 mg/kg,ip administrated every other day for 29 days by RT-qPCR analysis; assay type: functional, organism-based; conditions: time 29.0 day
# [29] = Toxicity in BALB/C mouse xenografted with human MDA-MB-231 cells assessed as change in body weight at 50 mg/kg,ip administrated daily for 11 days; assay type: organism-based; conditions: in vivo, 264 h, time 11 day
# 4T1 [30] = experiment: Antitumor activity against mouse 4T1 cells implanted in BALB/C mouse assessed as inhibition of tumor weight at 50 mg/kg,ip administrated daily for 14 days; assay type: functional, organism-based; conditions: time 14.0 day
smiles,measurement,setting,value
Cc1ccc(-c2nc(N3CCN(CCN(C)C)CC3)ncc2-c2ccoc2)cc1.Cl.Cl,Activity,[1],Non-Toxic
same,Activity,MCF7 [2],Active
same,Activity,[3],Non-Toxic
same,Activity,4T1 [4],Active
same,Activity,4T1 [5],Active
same,Activity,4T1 [6],Active
same,Activity,4T1 [7],Active
same,Activity,4T1 [8],Active
same,Activity,[9],Non-Toxic
same,Activity,MCF7 [10],Active
same,Activity,MCF7 [11],Active
same,Activity,4T1 [12],Active
same,Activity,MCF7 [13],Active
same,Activity,4T1 [14],Active
same,Activity,T47D,Active
same,Activity,4T1 [15],Active
same,Activity,4T1 [16],Active
same,pEC50,MDA-MB-468,5.69
same,Activity,MCF7 [17],Active
same,Activity,MCF7 [18],Active
same,Activity,MCF7 [19],Active
same,Activity,MCF7 [20],Active
same,Activity,[21],Non-Toxic
same,Activity,MCF7 [22],Active
same,Activity,[23],Non-Toxic
same,Activity,[24],Non-Toxic
same,Activity,4T1 [25],Active
same,Activity,[26],Non-Toxic
same,Activity,4T1 [27],Active
same,Activity,MCF7 [28],Active
same,Activity,[29],Non-Toxic
same,Activity,4T1 [30],Active
